Reference: ChEMBL document CHEMBL4364313, “Synthesis of new 5,6,7,8-tetrahydropyrido[1,2-c]pyrimidine derivatives with rigidized tryptamine moiety as potential SSRI and 5-HT1A receptor ligands” (Eur J Med Chem, 2019)
Active and inactive are the calls of the source. The rule behind the calls is not given here.

Key:
[1] = target: Serotonin transporter (SERT); assay: biochemical
[2] = tested on: Mus musculus; assay: Induction of hypothermia in CD-1 mouse assessed as change in body temperature at 5 mg/kg, ip treated for 60 mins and measured after 30 mins by thermometric method; format: functional, organism-based
[3] = target: 5-hydroxytryptamine receptor 7 (Homo sapiens, UniProt P34969); assay: biochemical
Description: Displacement of [3H]-5-CT from human 5HT7 receptor expressed in HEK cells incubated for 1 hr by Cheng-Prusoff analysis based microbeta scintillation counting method

[4] = tested on: Mus musculus; assay: Induction of hypothermia in CD-1 mouse assessed as change in body temperature at 5 mg/kg, ip treated for 120 mins and measured after 30 mins by thermometric method; format: functional, organism-based
[5] = target: D(2) dopamine receptor (Homo sapiens, UniProt P14416); assay: biochemical
Description: Displacement of [3H]-raclopride from human D2 receptor expressed in HEK cells incubated for 1 hr by Cheng-Prusoff analysis based microbeta scintillation counting method

[6] = tested on: Mus musculus; assay: Induction of hypothermia in CD-1 mouse assessed as change in body temperature at 20 mg/kg, ip treated for 60 mins and measured after 30 mins by thermometric method; format: functional, organism-based
[7] = tested on: Mus musculus; assay: Induction of hypothermia in CD-1 mouse assessed as change in body temperature at 20 mg/kg, ip treated for 30 mins and measured after 30 mins by thermometric method; format: functional, organism-based
[8] = tested on: Mus musculus; assay: Induction of hypothermia in CD-1 mouse assessed as change in body temperature at 5 mg/kg, ip treated for 90 mins and measured after 30 mins by thermometric method; format: functional, organism-based
[9] = target: 5-hydroxytryptamine receptor 2A (Homo sapiens, UniProt P28223); assay: Displacement of [3H]ketanserin from human 5HT2A receptor expressed in HEK293 cells incubated for 1.5 hrs by Cheng-Prusoff analysis based microbeta scintillation counting method; format: cell-based
[10] = tested on: Mus musculus; assay: Induction of hypothermia in CD-1 mouse assessed as change in body temperature at 20 mg/kg, ip treated for 120 mins and measured after 30 mins by thermometric method; format: functional, organism-based
[11] = tested on: Mus musculus; assay: Induction of hypothermia in CD-1 mouse assessed as change in body temperature at 5 mg/kg, ip treated for 30 mins and measured after 30 mins by thermometric method; format: functional, organism-based
[12] = Half life in human liver microsomes at 1 uM measured for 5 to 60 mins under shaking condition in presence of NADPH by LCMS analysis; format: ADME, Microsome
[13] = target: 5-hydroxytryptamine receptor 6 (Homo sapiens, UniProt P50406); assay: biochemical
Description: Displacement of [3H]LSD from human 5-HT6 receptor expressed in HEK cells incubated for 1 hr by Cheng-Prusoff analysis based microbeta scintillation counting method

[14] = tested on: Mus musculus; assay: Induction of hypothermia in CD-1 mouse assessed as change in body temperature at 20 mg/kg, ip treated for 90 mins and measured after 30 mins by thermometric method; format: functional, organism-based
[15] = tested on: Mus musculus; assay: Inhibition of 8-OH-DPAT-induced hypothermia in CD-1 mouse assessed change in body temperature at 20 mg/kg, ip pretreated for 45 mins followed by 8-OH-DPAT addition and measured after 30 mins by thermometric method; format: functional, organism-based
[16] = tested on: Mus musculus; assay: Inhibition of 8-OH-DPAT-induced hypothermia in CD-1 mouse assessed change in body temperature at 20 mg/kg, ip pretreated for 45 mins followed by 8-OH-DPAT addition and measured after 15 mins by thermometric method; format: functional, organism-based
[17] = tested on: Mus musculus; assay: Inhibition of 8-OH-DPAT-induced hypothermia in CD-1 mouse assessed change in body temperature at 20 mg/kg, ip pretreated for 45 mins followed by 8-OH-DPAT addition and measured after 45 mins by thermometric method; format: functional, organism-based
[18] = tested on: Mus musculus; assay: Inhibition of 8-OH-DPAT-induced hypothermia in CD-1 mouse assessed change in body temperature at 20 mg/kg, ip pretreated for 45 mins followed by 8-OH-DPAT addition and measured after 60 mins by thermometric method; format: functional, organism-based
[19] = species: Mus musculus; assay: Effect on forepaw treading in CD-1 mouse; format: ADME, organism-based; details: in vivo
[20] = species: Mus musculus; assay: Effect on forepaw treading in CD-1 mouse up to 30 mins in presence of 8-OH-DPAT; format: functional, organism-based
[21] = species: Mus musculus; assay: Effect on forepaw treading in CD-1 mouse in presence of 8-OH-DPAT; format: functional, organism-based
[22] = tested on: Mus musculus; assay: Psychoactive effect in CD-1 mouse assessed as effect on immobility time at 5 to 20 mg/kg, ip pretreated for 30 mins and measured after 6 mins by force swim test; format: ADME, organism-based; details: in vivo, 0.1 h

Chain of 5-hydroxytryptamine receptor 2A (P28223 whole entry): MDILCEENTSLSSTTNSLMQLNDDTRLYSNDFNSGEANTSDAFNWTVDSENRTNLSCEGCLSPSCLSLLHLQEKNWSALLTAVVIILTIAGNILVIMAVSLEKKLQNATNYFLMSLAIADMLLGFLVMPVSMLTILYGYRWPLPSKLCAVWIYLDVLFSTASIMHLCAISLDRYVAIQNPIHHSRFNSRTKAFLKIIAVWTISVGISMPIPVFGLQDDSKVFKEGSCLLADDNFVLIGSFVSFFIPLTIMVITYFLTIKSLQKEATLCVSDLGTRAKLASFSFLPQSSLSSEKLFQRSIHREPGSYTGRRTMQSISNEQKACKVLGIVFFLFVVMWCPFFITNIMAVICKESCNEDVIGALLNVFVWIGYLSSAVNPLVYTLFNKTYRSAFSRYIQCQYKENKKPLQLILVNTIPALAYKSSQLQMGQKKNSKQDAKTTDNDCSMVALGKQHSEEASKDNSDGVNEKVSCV
Chain of 5-hydroxytryptamine receptor 7 (P34969 whole entry): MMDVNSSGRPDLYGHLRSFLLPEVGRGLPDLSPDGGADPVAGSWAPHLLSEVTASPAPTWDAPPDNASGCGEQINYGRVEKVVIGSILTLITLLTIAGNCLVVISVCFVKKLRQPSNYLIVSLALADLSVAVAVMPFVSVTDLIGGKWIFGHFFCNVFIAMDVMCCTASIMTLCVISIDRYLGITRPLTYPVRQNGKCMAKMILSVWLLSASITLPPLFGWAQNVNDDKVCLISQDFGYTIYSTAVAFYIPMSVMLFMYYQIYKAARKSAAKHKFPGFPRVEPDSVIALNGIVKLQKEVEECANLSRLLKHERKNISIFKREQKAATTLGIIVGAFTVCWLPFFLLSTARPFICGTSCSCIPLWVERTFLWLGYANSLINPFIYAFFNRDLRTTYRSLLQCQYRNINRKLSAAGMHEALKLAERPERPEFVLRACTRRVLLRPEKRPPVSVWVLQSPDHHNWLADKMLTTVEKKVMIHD
Chain of D(2) dopamine receptor (P14416 whole entry): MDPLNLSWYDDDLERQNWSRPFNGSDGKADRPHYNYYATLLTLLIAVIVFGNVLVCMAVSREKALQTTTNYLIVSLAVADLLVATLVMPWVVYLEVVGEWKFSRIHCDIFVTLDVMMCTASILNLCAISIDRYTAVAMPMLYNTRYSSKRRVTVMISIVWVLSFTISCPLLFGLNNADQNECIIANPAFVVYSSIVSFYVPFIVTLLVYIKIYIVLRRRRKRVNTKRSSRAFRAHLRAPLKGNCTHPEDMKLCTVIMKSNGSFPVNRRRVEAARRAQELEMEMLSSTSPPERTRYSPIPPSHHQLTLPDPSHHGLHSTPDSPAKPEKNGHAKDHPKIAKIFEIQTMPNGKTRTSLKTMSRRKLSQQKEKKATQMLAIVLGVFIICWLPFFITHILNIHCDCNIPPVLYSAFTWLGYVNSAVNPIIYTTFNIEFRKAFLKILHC
Chain of 5-hydroxytryptamine receptor 6 (P50406 whole entry): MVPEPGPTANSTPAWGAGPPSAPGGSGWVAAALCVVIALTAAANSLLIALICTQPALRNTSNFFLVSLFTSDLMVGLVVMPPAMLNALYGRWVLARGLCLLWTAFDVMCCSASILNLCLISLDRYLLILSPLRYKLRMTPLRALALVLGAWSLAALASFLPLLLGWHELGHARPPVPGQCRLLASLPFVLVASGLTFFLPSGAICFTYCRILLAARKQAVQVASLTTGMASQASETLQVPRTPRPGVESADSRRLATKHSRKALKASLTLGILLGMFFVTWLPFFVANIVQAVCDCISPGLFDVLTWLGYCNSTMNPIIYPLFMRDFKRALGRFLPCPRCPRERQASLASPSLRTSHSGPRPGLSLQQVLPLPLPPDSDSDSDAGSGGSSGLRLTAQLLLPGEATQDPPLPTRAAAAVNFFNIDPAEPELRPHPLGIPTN

Row | SMILES | Ki [1] [nM] | deltaT [2] [°C] | Ki [3] [nM] | deltaT [4] [°C] | Ki [5] [nM] | deltaT [6] [°C] | deltaT [7] [°C] | deltaT [8] [°C] | Ki [9] [nM] | deltaT [10] [°C] | deltaT [11] [°C] | half-life at 1 µM [12] [min] | Ki [13] [nM] | deltaT [14] [°C] | further results
1 | Cc1ccccc1-c1c2n(c(=O)n(CCCCN3CCCC(c4c[nH]c5ccc(F)cc45)C3)c1=O)CCCC2 (centres undefined) | 142 |  |  |  |  |  |  |  |  |  |  |  |  |  | 
2 | COc1ccc2[nH]cc(C3CCCN(CCCCn4c(=O)c(-c5ccccc5OC)c5n(c4=O)CCCC5)C3)c2c1 (centres undefined) | 239 |  |  |  |  |  |  |  |  |  |  |  |  |  | 
3 | O=c1c(-c2ccccc2)c2n(c(=O)n1CCCCN1CCCC(c3c[nH]c4ccc(F)cc34)C1)CCCC2 (centres undefined) | 105 |  |  |  |  |  |  |  |  |  |  |  |  |  | 
4 | COc1ccc(-c2c3n(c(=O)n(CCCCN4CCCC(c5c[nH]c6ccc(F)cc56)C4)c2=O)CCCC3)cc1 (centres undefined) | 42 |  |  |  |  |  |  |  |  |  |  |  |  |  | 
5 | O=c1c(-c2ccccc2Cl)c2n(c(=O)n1CCCCN1CCCC(c3c[nH]c4ccccc34)C1)CCCC2 (centres undefined) | 8 | 0.3 | 1360 | 0.8 | 896 | 0.2 | -0.8 | 0.9 | 609 | 0.2 | 0 | 7 | 1030 | 0.3 | 
6 | COc1ccc(-c2c3n(c(=O)n(CCCCN4CCCC(c5c[nH]c6ccccc56)C4)c2=O)CCCC3)cc1 (centres undefined) | 52 |  |  |  |  |  |  |  |  |  |  |  |  |  | 
7 | O=c1c(-c2ccccc2F)c2n(c(=O)n1CCCCN1CCCC(c3c[nH]c4ccccc34)C1)CCCC2 (centres undefined) | 15 | 0.3 | 2430 | 1 | > 10000 | 0 | -0.8 | 0.7 | 325 | 0.7 | 0.2 | 12 | 1030 | 0.6 | deltaT [15]: -1.8 °C; deltaT [16]: -1.6 °C; deltaT [17]: -1.9 °C; deltaT [18]: -1.8 °C
8 | O=C1CC2(CCCC2)CC(=O)N1CCCCN1CCN(c2ncccn2)CC1 [BUSPIRONE] |  |  |  |  |  |  |  |  |  |  |  | 6.6 |  |  | 
9 | O=c1c(-c2ccc(F)cc2)c2n(c(=O)n1CCCCN1CCCC(c3c[nH]c4ccc(F)cc34)C1)CCCC2 (centres undefined) | 31 | 0.8 | 1110 | 0.9 | 1050 | 0.1 | -0.6 | 0.6 | 484 | 0 | 0.8 | 6.2 | 728 | 0.1 | Activity [19]: Non-Toxic; deltaT [15]: 0.2 °C; deltaT [16]: -0.1 °C; deltaT [17]: -0.3 °C; deltaT [18]: -0.4 °C; Activity [20]: Active
10 | Cc1ccc(-c2c3n(c(=O)n(CCCCN4CCCC(c5c[nH]c6ccccc56)C4)c2=O)CCCC3)cc1 (centres undefined) | 50 |  |  |  |  |  |  |  |  |  |  |  |  |  | 
11 | O=c1c(-c2ccccc2)c2n(c(=O)n1CCCCN1CCCC(c3c[nH]c4ccccc34)C1)CCCC2 (centres undefined) | 27 | 0.3 | 1090 | 0.8 | 2350 | 0 | -0.6 | 0.3 | 725 | -0.1 | 0.2 | 11.1 | 1150 | -0.2 | deltaT [15]: -1.1 °C; deltaT [16]: -1.2 °C; deltaT [17]: -0.9 °C; deltaT [18]: 0.7 °C
12 | O=c1c(-c2ccc(F)cc2)c2n(c(=O)n1CCCCN1CCCC(c3c[nH]c4ccccc34)C1)CCCC2 (centres undefined) | 13 | 0.3 | 1710 | 0.5 | 1980 | 0.3 | 0.1 | 0.3 | 1280 | 0.1 | 0.3 | 7 | 1650 | -0.1 | deltaT [15]: -0.2 °C; Activity [21]: Active; Activity [22]: Non-Toxic; deltaT [16]: -0.2 °C; deltaT [17]: -0.3 °C; deltaT [18]: -0.9 °C
13 | COc1ccc2[nH]cc(C3CCCN(CCCCn4c(=O)c(-c5ccc(Cl)cc5)c5n(c4=O)CCCC5)C3)c2c1 (centres undefined) | 23 |  |  |  |  |  |  |  |  |  |  |  |  |  | 
14 | COc1ccc2[nH]cc(C3CCCN(CCCCn4c(=O)c(-c5ccccc5F)c5n(c4=O)CCCC5)C3)c2c1 (centres undefined) | 236 |  |  |  |  |  |  |  |  |  |  |  |  |  | 
